In patent US8148516B2, “Flowcell systems for single molecule detection” (Pacific Biosciences of California, Inc., priority 2000, dated 2012):

Test: Capillary electrophoresis of dTTP and dTDP: effect of Mg++ on electrophoretic mobility
Type: physicochemical
Settings: 50 mM Tris-acetate pH 8.0, 60 mM KCl; for effect of Mg++ on electrophoretic mobility: MgCl2 3-40 mM
Protocol: The effect of Mg^++ on the electrophoretic mobility of dTTP and dTDP was determined by capillary electrophoresis. Electrophoresis buffer contained 50 mM Tris-acetate pH 8.0, 60 mM KCl, and various concentrations of MgCl2 (3, 4, 6, 10, 15, 25 and 40 mM). The sample contained 0.5 mM nucleotide (dTTP or dTDP; Sigma) and 0.8 mM mesityl oxide (electroneutral marker; Sigma). The samples were analyzed by capillary electrophoresis (Hewlett Packard) using an uncoated fused silica capillary (40 cm from injection end to detection zone). Voltage was 8.5 kV and peaks were monitored by optical absorbance at 260 nm. Electrokinetic velocity of each sample peak was calculated by dividing distance (40 cm) by elution time. Electroosmotic flow (EOF) of the bulk buffer is taken as the velocity of the mesityl oxide marker. Nucleotide electrophoretic velocity is the nucleotide electrokinetic velocity minus EOF. Nucleotide electrophoretic velocities are plotted as a function of Mg^++ concentration (FIG. 11A).

Structure (SMILES)	electrophoretic mobility compared with dTDP (3-40 mM MgCl2, 8.5 kV)	effect of Mg++ on electrophoretic mobility
Cc1cn([C@H]2C[C@H](O)[C@@H](COP(=O)(O)OP(=O)(O)OP(=O)(O)O)O2)c(=O)[nH]c1=O [dTTP]	more negative electrophoretic mobility than the dTDP	from more negative to less negative
Cc1cn([C@H]2C[C@H](O)[C@@H](COP(=O)(O)OP(=O)(O)O)O2)c(=O)[nH]c1=O [dTDP]		from more negative to less negative
